Several values for one entry are separate records, joined by “and”; a condition that tells them apart may be missing. Equal values may be shown once. Read-outs that look alike come from different tables or passages of the source.
How the values were obtained:
Format in all cases: in vivo, mice
[1] = tested on: 6 Hz (32 mA) psychomotor seizures; assay: 6 Hz psychomotor seizure test, 32 mA (incl. TPE determination); conditions: for ED50: Mus musculus, sc, read-out: ED50 (95% CI) 32 mA; for ED50 / ED50 (95% CI) 32 mA: at TPE; for ED50 (95% CI) 32 mA: s.c.
Summary of the method: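 Mice dosed s.c. into a loose skin fold (one compound p.o.) at 0.01 mL/g body weight. Focal seizures induced by corneal stimulation (6 Hz, 0.2 msec rectangular pulse, 3 sec) at 32 mA; absence of stun, forelimb clonus, vibrissae twitching and Straub-tail scored as protection. TPE determined in this assay; ED50 from evenly spaced doses.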

[2] = Plasma and brain levels (pK/pD analysis); conditions: for concentration at 0.25 h / concentration at 0.5 h / concentration at 1 h / concentration at 2 h / concentration at 4 h: mouse, plasma, subcutaneous
Experimental: In various tests, animals were sacrificed following testing, and trunk blood and/or brain tissue (whole brains) was collected for quantification of drug levels. Immediately after testing, animals were decapitated and trunk blood was collected into a BD Vacutainer® tube containing K2EDTA and chilled on ice until centrifugation. Following centrifugation (13000-18000 rpm, 5-7 min), the plasma was removed and transferred to a labeled microcentrifuge tube and stored at −80° C. For brain tissue collection, brains were removed immediately following decapitation and flash frozen. The frozen sample was placed in a labeled centrifuge tube and stored at −80° C.
In addition to recording the efficacy and toxicity data for these compounds alone or in combination, both plasma and brain samples were collected from each of the groups for pharmacokinetic/pharmacokinetic analysis.

[3] = Minimal motor impairment (rotarod)
[4] = 10 mg/kg s.c., 0.25 h, 32 mA group
[5] = 20 mg/kg s.c., 0.25 h, 32 mA group
[6] = 10 mg/kg, 10 mg/kg s.c., 32 mA group, read-out: Co. No. 25-a mean plasma levels
[7] = 20 mg/kg, 20 mg/kg s.c., 32 mA group, read-out: Co. No. 25-a mean plasma levels
[8] = 5 mg/kg s.c., 0.25 h, 32 mA group
[9] = 10 mg/kg s.c., 0.5 h, 32 mA group
[10] = 10 mg/kg s.c., 1 h, 32 mA group
[11] = 10 mg/kg s.c., 2 h, 32 mA group
[12] = 10 mg/kg s.c., 4 h, 32 mA group
[13] = 20 mg/kg s.c., 0.5 h, 32 mA group

CCCCn1ccc(N2CCC(c3ccc(F)cc3F)CC2)c(Cl)c1=O [Co. No. 25-a]
# protected/# tested ([1]; 1 mg/kg s.c., 0.25 h): 1/8 | # protected/# tested ([1]; 5 mg/kg s.c., 0.25 h): 4/8 | # protected/# tested ([1]; 10 mg/kg s.c., 0.25 h): 2/4 and 4/8 | # protected/# tested ([1]; 10 mg/kg s.c., 0.5 h): 1/4 | # protected/# tested ([1]; 10 mg/kg s.c., 1 h): 1/4 | # protected/# tested ([1]; 10 mg/kg s.c., 2 h): 0/4 | # protected/# tested ([1]; 10 mg/kg s.c., 4 h): 0/4 | # protected/# tested ([1]; 15 mg/kg s.c., 0.25 h): 3/8 | # protected/# tested ([1]; 20 mg/kg s.c., 0.25 h): 4/4 and 8/8 | # protected/# tested ([1]; 20 mg/kg s.c., 0.5 h): 3/4 | # protected/# tested ([1]; 20 mg/kg s.c., 1 h): 4/4 | # protected/# tested ([1]; 20 mg/kg s.c., 2 h): 1/4 | # protected/# tested ([1]; 20 mg/kg s.c., 4 h): 1/4 | ED50 [1]: 7.7 mg/kg | ED50 (95% CI) 32 mA [1]: ED50 (95% CI): 7.7 mg/kg (2.3 to 18.4) | Co. No. 25-a mean plasma levels (ng/mL) [2, 4]: 6,113 ng/mL | Co. No. 25-a mean plasma levels (ng/mL) [2, 5]: 5,570 ng/mL | concentration at 0.25 h ([2]; 1 mg/kg, 1 mg/kg s.c., 0.25 h, 32 mA group, read-out: Co. No. 25-a mean plasma levels): 466 ng/mL | concentration at 0.25 h ([2]; 5 mg/kg, 5 mg/kg s.c., 0.25 h, 32 mA group, read-out: Co. No. 25-a mean plasma levels): 2560 ng/mL | concentration at 0.25 h ([2]; 5 mg/kg, 5 mg/kg s.c., 44 mA group, read-out: Co. No. 25-a mean plasma levels): 1430 ng/mL | concentration at 0.25 h ([2]; 10 mg/kg, 10 mg/kg s.c., 0.25 h, 32 mA group, read-out: Co. No. 25-a mean plasma levels): 11000 ng/mL | concentration at 0.25 h ([2]; 10 mg/kg, 10 mg/kg s.c., 0.25 h, 32 mA group, read-out: Co. No. 25-a mean plasma levels, statistical outlier removed): 11000 ng/mL | concentration at 0.5 h ([2]; 10 mg/kg, 10 mg/kg s.c., 0.5 h, 32 mA group, read-out: Co. No. 25-a mean plasma levels): 3330 ng/mL | concentration at 1 h [2, 6]: 700 ng/mL | concentration at 2 h [2, 6]: 256 ng/mL | concentration at 4 h [2, 6]: 40 ng/mL | concentration at 0.25 h ([2]; 10 mg/kg, 10 mg/kg s.c., 44 mA group, read-out: Co. No. 25-a mean plasma levels): 4340 ng/mL | concentration at 0.25 h ([2]; 10 mg/kg, 10 mg/kg s.c., 44 mA group, read-out: Co. No. 25-a mean plasma levels, statistical outlier removed): 4340 ng/mL | concentration at 0.25 h ([2]; 15 mg/kg, 15 mg/kg s.c., 0.25 h, 32 mA group, read-out: Co. No. 25-a mean plasma levels): 1200 ng/mL | concentration at 0.25 h ([2]; 20 mg/kg, 20 mg/kg s.c., 0.25 h, 32 mA group, read-out: Co. No. 25-a mean plasma levels): 4100 ng/mL | concentration at 0.5 h ([2]; 20 mg/kg, 20 mg/kg s.c., 0.5 h, 32 mA group, read-out: Co. No. 25-a mean plasma levels): 2800 ng/mL | concentration at 1 h [2, 7]: 1760 ng/mL | concentration at 2 h [2, 7]: 618 ng/mL | concentration at 4 h [2, 7]: 28 ng/mL | concentration at 0.25 h ([2]; 20 mg/kg, 20 mg/kg s.c., 44 mA group, read-out: Co. No. 25-a mean plasma levels): 3370 ng/mL | concentration at 0.25 h ([2]; 30 mg/kg, 30 mg/kg s.c., 44 mA group, read-out: Co. No. 25-a mean plasma levels): 7220 ng/mL | concentration at 0.25 h ([2]; 40 mg/kg, 40 mg/kg s.c., 44 mA group, read-out: Co. No. 25-a mean plasma levels): 6260 ng/mL | # rotarod motor impairment/# tested ([3]; 1 mg/kg s.c., 0.25 h, 32 mA group): 0/8 | # rotarod motor impairment/# tested [3, 8]: 0/8 | # rotarod motor impairment/# tested ([3]; 5 mg/kg s.c., 0.25 h, 44 mA group): 1/8 | # rotarod motor impairment/# tested [3, 4]: 0/4 and 0/8 | # rotarod motor impairment/# tested ([3]; 10 mg/kg s.c., 0.25 h, 44 mA group): 0/8 | # rotarod motor impairment/# tested [3, 9]: 0/4 | # rotarod motor impairment/# tested [3, 10]: 1/4 | # rotarod motor impairment/# tested [3, 11]: 0/4 | # rotarod motor impairment/# tested [3, 12]: 0/4 | # rotarod motor impairment/# tested ([3]; 15 mg/kg s.c., 0.25 h, 32 mA group): 0/8 | # rotarod motor impairment/# tested [3, 5]: 0/4 and 0/8 | # rotarod motor impairment/# tested ([3]; 20 mg/kg s.c., 0.25 h, 44 mA group): 0/8 | # rotarod motor impairment/# tested [3, 13]: 1/4 | # rotarod motor impairment/# tested ([3]; 20 mg/kg s.c., 1 h, 32 mA group): 1/4 | # rotarod motor impairment/# tested ([3]; 20 mg/kg s.c., 2 h, 32 mA group): 0/4 | # rotarod motor impairment/# tested ([3]; 20 mg/kg s.c., 4 h, 32 mA group): 1/4 | # rotarod motor impairment/# tested ([3]; 30 mg/kg s.c., 0.25 h, 44 mA group): 0/8 | # rotarod motor impairment/# tested ([3]; 40 mg/kg s.c., 0.25 h, 44 mA group): 0/8

Fc1ccc(N2CCN(Cc3ccn4c(CC5CC5)nnc4c3C(F)(F)F)CC2)c(F)c1 [Co. No. 1]
# protected/# tested ([1]; 0.5 mg/kg s.c., 0.5 h): 1/8 | # protected/# tested ([1]; 2.5 mg/kg s.c., 0.25 h): 1/8 | # protected/# tested ([1]; 2.5 mg/kg s.c., 0.5 h): 5/8 and 7/16 | # protected/# tested ([1]; 5 mg/kg s.c., 0.25 h): 8/12 | # protected/# tested ([1]; 5 mg/kg s.c., 0.5 h): 8/12 | # protected/# tested ([1]; 10 mg/kg s.c., 0.25 h): 4/4 | # protected/# tested ([1]; 10 mg/kg s.c., 0.5 h): 4/4 and 7/8 | # protected/# tested ([1]; 10 mg/kg s.c., 1 h): 3/4 | # protected/# tested ([1]; 10 mg/kg s.c., 2 h): 0/4 | # protected/# tested ([1]; 10 mg/kg s.c., 4 h): 0/4 | # protected/# tested ([1]; 20 mg/kg s.c., 0.5 h): 8/8 | ED50 [1]: 2.8 mg/kg | ED50 (95% CI) 32 mA [1]: ED50 (95% CI): 2.8 mg/kg (1.3 to 4.3) | Mean Plasma Level Co. No. 1, statistical outlier removed ([2]; Co. No. 1 2.5 mg/kg combined with LEV 10 mg/kg): (390) ng/ml | concentration at 0.5 h ([2]; 2.5 mg/kg, Mean Plasma Levels (non-combination) Co. No. 1, Co. No. 1 2.5 mg/kg alone): 438 ng/mL | concentration at 0.5 h ([2]; Mean Plasma Level Co. No. 1, Co. No. 1 2.5 mg/kg combined with LEV 10 mg/kg): 657 ng/mL | # rotarod motor impairment/# tested ([3]; 0.5 mg/kg s.c., 0.5 h, 32 mA group): 0/8 | # rotarod motor impairment/# tested ([3]; 2.5 mg/kg s.c., 0.25 h, 32 mA group): 0/0 | # rotarod motor impairment/# tested ([3]; 2.5 mg/kg s.c., 0.5 h, 32 mA group): 0/0 and 0/16 | # rotarod motor impairment/# tested ([3]; 2.5 mg/kg s.c., 0.5 h, 44 mA group): 0/8 | # rotarod motor impairment/# tested [3, 8]: 0/0 | # rotarod motor impairment/# tested ([3]; 5 mg/kg s.c., 0.5 h, 32 mA group): 0/0 and 0/12 | # rotarod motor impairment/# tested [3, 4]: 0/0 | # rotarod motor impairment/# tested [3, 9]: 0/0 and 0/8 | # rotarod motor impairment/# tested ([3]; 10 mg/kg s.c., 0.5 h, 44 mA group): 0/8 | # rotarod motor impairment/# tested [3, 10]: 0/0 | # rotarod motor impairment/# tested [3, 11]: 0/0 | # rotarod motor impairment/# tested [3, 12]: 0/0 | # rotarod motor impairment/# tested ([3]; 15 mg/kg s.c., 0.5 h, 44 mA group): 0/8 | # rotarod motor impairment/# tested [3, 13]: 1/8 | # rotarod motor impairment/# tested ([3]; 20 mg/kg s.c., 0.5 h, 44 mA group): 1/8
